Where two headings read alike, the source gives them in different places.
Assays:
[1] = test system: HIV; experiment: AZT/acyclovir combination, in vitro efficacy (protection) vs. HIV; format: cell-based
Procedure: Using a method analogous to that described in Example 79 of EP21758A, combinations of AZT and acyclovir (ACV) were tested for in vitro efficacy vs. HIV.

[2] = test system: E. coli CN314; experiment: MIC determination of each drug alone; format: cell-based; details: Escherichia coli
Procedure: Microtiter dilutions were prepared using Wellcotest broth. Prior to synergy testing, MIC determinations were made for each compound individually against the test organism (E. coli CN314).

[3] = test system: Friend Lenkemia Virus (FLV); experiment: Anti-Friend Leukemia Virus plaque inhibition in FG-10 cells; format: cell-based
Procedure: FG-10 cells were seeded on a plate one day before they were infected with FLV. One hour after infecting, known concentrations of the test compounds or combinations were added. The plates were incubated for 3 days, the media replaced with fresh McCoy's 5A media and incubated another 3 days. […]

[4] = test system: vaccinia, HSVI and varicella zoster virus (VZV); details: De Clerq et al, Biochem.Pharm. (1980) 29, 1849-1851; including DNA viruses; cited from earlier work
[5] = test system: HIV; experiment: Reverse transcriptase activity in supernatant of HIV-infected PBMC, with multiple drug effect analysis; format: cell-based; details: for mean reverse transcriptase values: Experiment 2, Day 10
[6] = test system: HIV; experiment: HIV p24 antigen by radioimmunoassay in HIV-infected PBMC cultures; format: cell-based; details: Experiment 4, Day 14
[7] = test system: HIV; experiment: Virus yield of HIV-infected PBMC cultures; format: cell-based; details: Experiment 3, Day 13; AZT .04 µM alone
[8] = test drugs alone, E. coli CN314, read-out: MIC

Nc1nc2c(ncn2COCCO)c(=O)[nH]1 [ACV, 9-(2-hydroxyethoxymethyl) guanine, reference compound]
protection ([1]; ACV alone, 16 µg/ml (the highest tested)): less than 30%
potentiates the antiviral activity of AZT ([1]; ACV combined with AZT vs. HIV): about 3 fold

CC(=O)O[C@H]1C[C@@]2(C)[C@@H](C[C@@H](O)[C@H]3[C@@]4(C)CC[C@@H](O)[C@@H](C)[C@@H]4CC[C@@]32C)/C1=C(\CCC=C(C)C)C(=O)O [Fusidic acid]
MIC [2, 8]: 1000 µg/mL

CO[C@H]1/C=C/O[C@@]2(C)Oc3c(C)c(O)c4c(O)c(c(/C=N/N5CCN(C)CC5)c(O)c4c3C2=O)NC(=O)/C(C)=C\C=C\[C@H](C)[C@H](O)[C@@H](C)[C@@H](O)[C@@H](C)[C@H](OC(C)=O)[C@@H]1C [Rifampicin]
MIC [2, 8]: 6.2 µg/mL

O=C(N[C@H](CO)[C@H](O)c1ccc([N+](=O)[O-])cc1)C(Cl)Cl [Chloramphenicol]
MIC [2, 8]: 3.1 µg/mL

CCC[C@@H]1C[C@@H](C(=O)N[C@@H]([C@H]2O[C@H](SC)[C@H](O)[C@@H](O)[C@H]2O)[C@H](C)Cl)N(C)C1 [Clindamycin]
MIC [2, 8]: 100 µg/mL

COc1cc(Cc2cnc(N)nc2N)cc(OC)c1OC [Trimethoprim, 2,4-diamino-5-(3',4',5'-trimethoxybenzyl) pyrimidine]
MIC ([2]; CN314): 0.125 µg/mL

Cc1cc(C)nc(NS(=O)(=O)c2ccc(N)cc2)n1 [Sulphadimidine]
MIC [2, 8]: 32 µg/mL

OCCN(CCO)c1nc(N2CCCCC2)c2nc(N(CCO)CCO)nc(N3CCCCC3)c2n1 [dipyridamole]
antiviral effect ([3]; dipyridamole alone, 10 µM): Neither dipyridamole (10 µM) nor dilazep (5 µM) alone had any observed antiviral effect

NC[C@H]1O[C@H](O[C@H]2[C@H](O)[C@@H](O[C@H]3O[C@H](CO)[C@@H](O)[C@H](N)[C@H]3O)[C@H](N)C[C@@H]2N)[C@H](N)C[C@@H]1O [Tobramycin]
MIC [2, 8]: 0.4 µg/mL

COc1cc(C(=O)OCCCN2CCCN(CCCOC(=O)c3cc(OC)c(OC)c(OC)c3)CC2)cc(OC)c1OC [dilazep]
antiviral effect ([3]; dilazep alone, 5 µM): Neither dipyridamole (10 µM) nor dilazep (5 µM) alone had any observed antiviral effect

Cc1cn([C@H]2C[C@H](N=[N+]=[N-])[C@@H](CO)O2)c(=O)[nH]c1=O [AZT]
activity against viruses [4]: no appreciable activity
mean reverse transcriptase values ([5]; AZT 0.01 µM alone): 159 cpm/10^6 cells x 10^3
mean reverse transcriptase values ([5]; AZT 0.02 µM alone): 110 cpm/10^6 cells x 10^3
mean reverse transcriptase values ([5]; AZT 0.04 µM alone): 71 cpm/10^6 cells x 10^3
mean reverse transcriptase values ([5]; AZT 0.08 µM alone): 31 cpm/10^6 cells x 10^3
mean reverse transcriptase values ([5]; AZT 0.16 µM alone): 7 cpm/10^6 cells x 10^3
mean RT values ([5]; Experiment 3, Day 13, AZT 0.02 µM alone): 51 cpm/10^6 cells x 10^3
mean RT values ([5]; Experiment 3, Day 13, AZT 0.04 µM alone): 10 cpm/10^6 cells x 10^3
mean RT values ([5]; Experiment 3, Day 13, AZT 0.08 µM alone): 2 cpm/10^6 cells x 10^3
mean RT values ([5]; Experiment 3, Day 13, AZT 0.16 µM alone): 5 cpm/10^6 cells x 10^3
mean RT values ([5]; Experiment 4, Day 11, AZT 0.02 µM alone): 8 cpm/10^6 cells x 10^3
mean RT values ([5]; Experiment 4, Day 11, AZT 0.04 µM alone): 4 cpm/10^6 cells x 10^3
mean RT values ([5]; Experiment 4, Day 11, AZT 0.08 µM alone): 1 cpm/10^6 cells x 10^3
inhibition of viral replication ([5]; experiment 1, all concentrations of AZT (3.2 µM and 5 twofold dilutions)): fully inhibitory
HIV p24 ([6]; AZT 0.02 µM alone): 100-200 ng protein/ml
HIV p24 ([6]; AZT 0.04 µM alone): 25-30 ng protein/ml
HIV p24 ([6]; AZT 0.08 µM alone): 11.2 ng protein/ml
EC50 ([3]; read-out: Azidothymidine ED50): 5 nM
virus yield [7]: 10^3 TCID50 /ml
MIC [2, 8]: 1 µg/mL
protection ([1]; AZT alone at 8µM): 100%
AZT ([1]; Table 3: AZT concentration with ACV 0 µg/ml, effect level not stated (presumably full protection)): 8 µM

CC[C@H]1OC(=O)[C@H](C)[C@@H](O[C@H]2C[C@@](C)(OC)[C@@H](O)[C@H](C)O2)[C@H](C)[C@@H](O[C@@H]2O[C@H](C)C[C@H](N(C)C)[C@H]2O)[C@](C)(O)C[C@@H](C)C(=O)[C@H](C)[C@@H](O)[C@]1(C)O [Erthromycin]
MIC [2, 8]: 25 µg/mL

— patent EP0594223B1, “Combination of therapeutic nucleosides and further therapeutic agents” (THE WELLCOME FOUNDATION LIMITED, priority 1985, dated 1987)
